In brackets after ≈: the same amount, converted by molar mass.
Assays:
[1] = tested on: Candida albicans; assay: Antifungal in vitro activity, agar dilution test (MIC); type: cell-based; conditions: Kimmig agar, inoculum 2 - 5 x 10^3 fungal particles per spot, yeasts 24 h, 27°C
Source text: (§1) Versuchsbeschreibung: • Die in-vitro-Wirksamkeit - gemessen anhand der minimalen Hemmkonzentration - wurde im Agarverdünnungstest ermittelt. Auf Serien von Kimmig - Agarplatten, die die entsprechenden Wirkstoffkonzentrationen im Agar gelöst enthielten, wurden mit Hilfe eines automatischen Beimpfungsgerätes Proben der Keimsuspesionen tropfenförmig aufgebracht. Das Inokulum betrug 2 - 5 x 10^3 Pilzpartikel pro Impfpunkt. Im Falle der Hefen lag die Bebrütungsdauer bei 24 Stunden, im Falle der Dermatophyten bei 96 Stunden; Bebrütungstemperatur 27°C.

[2] = tested on: Microsporon canis; assay: as above; type: cell-based; conditions: Kimmig agar, inoculum 2 - 5 x 10^3 fungal particles per spot, dermatophytes 96 h, 27°C
Source text: as §1

[3] = tested on: Aspergillus fumigatus; assay: as above; type: cell-based; conditions: Kimmig agar, inoculum 2 - 5 x 10^3 fungal particles per spot, 27°C
Source text: as §1

[4] = tested on: Torulopsis glabrata; assay: as above; type: cell-based; conditions: Kimmig agar, inoculum 2 - 5 x 10^3 fungal particles per spot, yeasts 24 h, 27°C
Source text: as §1

[5] = tested on: Trichophyton mentagrophytes; assay: Antimicrobial in vivo activity (local and oral) in experimental guinea pig trichophytosis; set-up: species or system Meerschweinchen der Rasse Pirbright-white; conditions: for Wirkung lokale Therapie (1%-ige Lösung): local, 1 x daily from day 3 p.i., 1% solution in Dimethylsulfoxid : Glycerin = 1 : 4
Source text: Versuchsbeschreibung: • Weiße Meerschweinchen der Rasse Pirbright-white werden auf dem geschorenen, nicht skarifizierten Rücken mit einer Mikro- und Makrokonidien-Suspension von Trichophyton mentagrophytes infiziert. Bei unbehandelten Tieren entwickelt sich innerhalb 12 Tagen p.i. das typische Bild einer Dermatophytose mit Rötung, Schuppung und Haarausfall bis zum totalen Integument-Defekt an der Infektionsstelle. […]

[6] = tested on: Trichophyton mentagr.; assay: Antifungal in vitro activity, agar dilution test (MIC); type: cell-based, Trichophyton mentagrophytes; conditions: Kimmig agar, inoculum 2 - 5 x 10^3 fungal particles per spot, dermatophytes 96 h, 27°C
Source text: as §1

[7] = tested on: Candida-Zellen; assay: Antimicrobial in vivo activity (oral) in mouse candidosis; set-up: species or system Mäuse vom Typ SPF-CF; conditions: mice infected i.v. with Candida; 12,5 bis 25mg/kg 2 x daily over 5 days oral; survivors on day 6 p.i.
Experimental: Mäuse vom Typ SPF-CF werden intravenös mit 1-2 x 10^6 1 logarithmisch wachsenden Candida-Zellen, suspendiert in physiologischer Kochsalzlösung, infiziert. Die Tiere werden mit Dosierungen von 12,5 bis 25mg/kg Körpergewicht 2 x täglich über 5 Tage oral behandelt.
Unbehandelte Tiere starben 3 bis 6 Tage post infektionem. Die Ueberlebensrate am 6.Tag post infektionem betrug bei unbehandelten Kontrolltieren etwa 5 %.

Row | Molecule | Minimale Hemmkonzentration [1] [µg/mL] | Minimale Hemmkonzentration [2] [µg/mL] | Minimale Hemmkonzentration [3] [µg/mL] | Minimale Hemmkonzentration [4] [µg/mL] | Wirkung lokale Therapie (1%-ige Lösung) [5] | Minimale Hemmkonzentration [6] [µg/mL] | Wirkung [7] | MIC ([4]; Nakaseomyces glabratus, 24 h, read-out: Minimale Hemmkonzentration) [mg/L] | Wirkung orale Therapie (50mg/kg/die) ([5]; oral, 1 x daily from day of infection, aqueous solution)
1 | 1-(4-Chlorphenyl)-4,4-dimethyl-2-(1,2,4-triazol-1-yl)-1-penten-3-ol [geometrisches Isomerengemisch (bekannt)] | 8 | 8 | 8 | 4 | schwache Wirkung | <1 | +++ (Wirkung = ≥60% Ueberlebende am 6.Tag p.i.) | – | –
2 | CC(C)(C)C(O)C(=Cc1ccc(Cl)cc1)n1cncn1 (single isomer, unassigned) [Form A, 1-(4-Chlorphenyl)-4,4-dimethyl-2-(1,2,4-triazol-1-yl)-1-penten-3-ol] | 4 | 32 | 32 | – | – | 4 | kW (keine Wirkung) | 1 (≈ 3.43 µM) | –
3 | CC(C)(C)C(O)C(=Cc1ccc(Cl)cc1)n1cncn1 (single isomer, unassigned) [Form B(1), 1-(4-Chlorphenyl)-4,4-dimethyl-2-(1,2,4-triazol-1-yl)-1-penten-3-ol] | <1 | <1 | 1 to 4 | <1 | sehr gute Wirkung | <1 | +++++ (sehr gute Wirkung = >95% Ueberlebende am 6.Tag p.i.) | – | sehr gute Wirkung

Source: patent EP0020955A1, “Geometrical isomers of 4,4-dimethyl-1-phenyl-2-(1,2,4-triazole-1-yl)-1-penten-3-ols, process for their preparation and medicament containing them” (BAYER AG, priority 1979, dated 1981)
